Reference: patent US11883379B1, “9-flouro-dibenzo[B,G]indeno[1′, 2′:3,4]fluoreno-[1,2-D]oxonine-5, 11, 16,21-tetraone as an antimicrobial agent” (KING FAISAL UNIVERSITY, priority 2023, dated 2024)

melting point: 288 to 289 °C
SMILES: O=C1Oc2ccc(F)cc2-c2c(c3c4ccccc4c(=O)c3c3c2c(=O)c2ccccc23)C(=O)c2ccccc21 [9-fluoro-dibenzo[b,g]indeno[1′,2′:3,4]fluoreno-[1,2-d]oxonine-5,11,16,21-tetraone]
